The results in this text go back to PubChem BioAssay (NCI).

Some test systems named below: LOX IMVI melanoma; PC-3 prostate; HL-60(TB) leukemia; HT29 colon; DU-145 prostate; CCRF-CEM leukemia; HCT-116 colon; HOP-62 NSCLC; SNB-19 CNS; MDA-MB-435.
What all share (test): NCI tumour cell line growth inhibition, 48 h

SMILES strings stand for the structures. “And” between values parts separate entries of the source, which are not always exact repeats. Identical values can stand only once.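 Method: 48-hour compound exposure of cells in 96-well plates, five concentrations, linear interpolation of endpoints. GI50 is the concentration that inhibits growth by half. TGI marks complete inhibition of growth.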 Bounds are passed on as bounds.

With `CNc1ccc(-c2cc(=O)oc3ccc(Cl)cc23)cc1`, the GI50 is 0.0636 µM and 0.0542 µM in the assay on LOX IMVI melanoma; 0.226 µM and 0.064 µM with PC-3 prostate; 0.0431 µM and 0.0317 µM in the assay on HL-60(TB) leukemia; 0.297 µM and 0.139 µM in the assay with HT29 colon; 0.183 µM and 0.155 µM in the assay with DU-145 prostate; 0.146 µM and 0.0494 µM with CCRF-CEM leukemia. Also, the GI50 with HCT-116 colon was 0.044 µM; in the assay with HOP-62 NSCLC, 0.0696 µM and 0.169 µM; in the assay on SNB-19 CNS, 0.23 µM and 0.0717 µM. The TGI in the assay with LOX IMVI melanoma is greater than 100 µM; with PC-3 prostate it was greater than 100 µM; with HL-60(TB) leukemia, 2.05 µM and 1.14 µM; in the assay with HT29 colon, 0.496 µM; in the assay on CCRF-CEM leukemia, greater than 100 µM; with HCT-116 colon, 5.23 µM. Besides, the TGI in the assay on HOP-62 NSCLC and with SNB-19 CNS was greater than 100 µM in each case.
In the case of `O=c1c2ccccc2c(=O)c2c1cc(Cl)c1[nH]c3c([nH]c12)c(Cl)cc1c(=O)c2ccccc2c(=O)c13`, the TGI in the assay with HL-60(TB) leukemia, with HT29 colon, in the assay on CCRF-CEM leukemia, in the assay on HCT-116 colon, in the assay on HOP-62 NSCLC and with SNB-19 CNS was greater than 100 µM each time.
Take `N#CCC(=O)N/N=C1\C(=O)N(c2ccc(Cl)cc2)C(=O)C(=O)C1c1nc2ccccc2o1` (centres undefined): the TGI in the assay on HL-60(TB) leukemia, in the assay on HT29 colon, in the assay with CCRF-CEM leukemia, in the assay with HCT-116 colon, with HOP-62 NSCLC and with SNB-19 CNS was greater than 100 µM throughout.
As to `Cc1cc(NS(=O)(=O)c2ccc(NC(=O)c3cccc4c(Nc5ccc(S(=O)(=O)Nc6cc(C)on6)cc5)c5ccccc5nc34)cc2)no1`, the TGI was 87.5 µM in the assay with LOX IMVI melanoma; 67 µM with HL-60(TB) leukemia; greater than 100 µM in the assay with HT29 colon; greater than 100 µM in the assay on CCRF-CEM leukemia; greater than 100 µM in the assay on HOP-62 NSCLC; 88.7 µM with SNB-19 CNS.
As to `C/C(=C\CCc1ccoc1)CC/C=C(\C)CCCN1CCC(CO)CC1`, the GI50 in the assay on LOX IMVI melanoma is 1.81 µM; with HL-60(TB) leukemia, 1.96 µM; with MDA-MB-435 it was 3.07 µM; in the assay with HT29 colon, 2.26 µM; in the assay on DU-145 prostate, 8.41 µM; in the assay with CCRF-CEM leukemia it was 2.42 µM. Also, the GI50 is 2.96 µM in the assay on HCT-116 colon, 3.39 µM in the assay on HOP-62 NSCLC and 4.61 µM in the assay on SNB-19 CNS. In addition, the TGI in the assay on LOX IMVI melanoma worked out at 3.47 µM; with HL-60(TB) leukemia, 3.95 µM; in the assay with MDA-MB-435, 10.8 µM; with HT29 colon it was 7.48 µM; in the assay with DU-145 prostate it was 20.6 µM; in the assay with CCRF-CEM leukemia, 6.47 µM. Besides, the TGI was found to be 10.4 µM in the assay with HCT-116 colon, 9.6 µM with HOP-62 NSCLC and 19.4 µM in the assay with SNB-19 CNS.
As for `COc1cccc(NC(=O)CC(=O)N2NC(C)C(N=Nc3cccc(C(=O)O)c3)C2=O)c1` (centres undefined), the TGI in the assay with LOX IMVI melanoma, in the assay on HT29 colon, in the assay on CCRF-CEM leukemia, with HCT-116 colon, in the assay with HOP-62 NSCLC and with SNB-19 CNS was greater than 100 µM each time.
With `C[C@H]1CC[C@@H]2[C@@H](C)[C@H]3[C@H](C[C@H]4[C@@H]5CC=C6C[C@@H](O)CC[C@]6(C)[C@H]5C[C@H](O)[C@]34C)N2C1`, the TGI with LOX IMVI melanoma, in the assay on PC-3 prostate, in the assay on MDA-MB-435, with HT29 colon, with DU-145 prostate and in the assay with HCT-116 colon was greater than 100 µM throughout. Also, the TGI in the assay with HOP-62 NSCLC and with SNB-19 CNS was greater than 100 µM each time.
As for `C[C@H]1CC(=O)C2=CCCC3(SCCCS3)[C@@H]2[C@H]1CO`, the TGI in the assay on LOX IMVI melanoma, in the assay with HL-60(TB) leukemia, in the assay on HT29 colon, with CCRF-CEM leukemia, with HCT-116 colon and in the assay with HOP-62 NSCLC was greater than 100 µM each time. The TGI in the assay with SNB-19 CNS was greater than 100 µM.
As for `CCN(CC)CCNC(=O)c1cccc2cc3ccccc3nc12`, the TGI with LOX IMVI melanoma worked out at 19.2 µM; in the assay on HL-60(TB) leukemia it was 24.4 µM; in the assay with HT29 colon, 35 µM; with CCRF-CEM leukemia it was 41.3 µM; in the assay on HCT-116 colon, 21.8 µM; in the assay with HOP-62 NSCLC, 36.9 µM. Further, the TGI with SNB-19 CNS was 64.7 µM.
Consider `O=C(O)C#CCO`, for which the TGI in the assay with LOX IMVI melanoma, with HL-60(TB) leukemia, in the assay with HT29 colon, with CCRF-CEM leukemia, in the assay on HCT-116 colon and in the assay on HOP-62 NSCLC was greater than 100 µM throughout. Further, in the assay on SNB-19 CNS, the TGI was greater than 100 µM.
As for `NCC(NC(=O)OCc1ccccc1)C(=O)O` (centres undefined), the TGI with LOX IMVI melanoma, in the assay on HL-60(TB) leukemia, in the assay with HT29 colon, in the assay on CCRF-CEM leukemia, with HCT-116 colon and with HOP-62 NSCLC was greater than 50 µM in each case. In addition, in the assay with SNB-19 CNS, the TGI was greater than 50 µM.
Turning to `Cc1cc(C(=O)N2CCN(Cc3ccccc3)CC2)c(C)o1`, the TGI with LOX IMVI melanoma, in the assay on HL-60(TB) leukemia, in the assay on HT29 colon, in the assay on CCRF-CEM leukemia, with HCT-116 colon and in the assay with HOP-62 NSCLC was greater than 100 µM each time. Further, the TGI in the assay with SNB-19 CNS was greater than 100 µM.
Take `CN(c1ccccc1)C1C(=O)N(c2ccccc2)C1/C=C/c1ccccc1` (centres undefined): the TGI with HL-60(TB) leukemia, in the assay with HT29 colon, with CCRF-CEM leukemia, with HCT-116 colon and in the assay with SNB-19 CNS was greater than 100 µM each time.
With `Cc1cc(C)cc(Sc2c([N+](=O)[O-])ncn2C)c1`, the TGI is 25.6 µM in the assay with LOX IMVI melanoma; 38.7 µM in the assay on HT29 colon; greater than 100 µM with CCRF-CEM leukemia; 32.4 µM with HCT-116 colon; greater than 100 µM with HOP-62 NSCLC; greater than 100 µM in the assay with SNB-19 CNS.
Take `O=C1C(Cl)=C(Nc2cccc(O)c2)C(=O)N1c1ccc(Cl)c(Cl)c1`: the GI50 was 15.8 µM with LOX IMVI melanoma; 19 µM in the assay with PC-3 prostate; 21.9 µM with MDA-MB-435; 19.3 µM in the assay with DU-145 prostate; 25.2 µM with CCRF-CEM leukemia; 18.4 µM in the assay on HCT-116 colon. The GI50 with HOP-62 NSCLC was 16.4 µM; in the assay with SNB-19 CNS, 36 µM. For the same molecule, the TGI turned out to be 33.3 µM in the assay on LOX IMVI melanoma; 49.6 µM in the assay with PC-3 prostate; 59.6 µM in the assay on MDA-MB-435; 42.1 µM with DU-145 prostate; 74.6 µM in the assay on CCRF-CEM leukemia; 33.9 µM in the assay on HCT-116 colon. Also, the TGI in the assay on HOP-62 NSCLC is 32.5 µM; in the assay with SNB-19 CNS it was greater than 100 µM.
